Data taken from the NIST ThermoML archive (doi:10.1021/je900738e).
Numbers after ± are expanded uncertainties.

Conditions: Liquid, Manometric method

| Structure (SMILES) | vapor or sublimation pressure (283.15 K) | vapor or sublimation pressure (293.15 K) | vapor or sublimation pressure (303.15 K) | vapor or sublimation pressure (313.15 K) | vapor or sublimation pressure (323.15 K) | vapor or sublimation pressure (333.15 K) | vapor or sublimation pressure (343.15 K) | vapor or sublimation pressure (346.65 K) | vapor or sublimation pressure (287.15 K) | vapor or sublimation pressure (296.35 K) | vapor or sublimation pressure (305.35 K) | vapor or sublimation pressure (313.45 K) | vapor or sublimation pressure (323.05 K) | vapor or sublimation pressure (332.95 K) | vapor or sublimation pressure (343.05 K) | vapor or sublimation pressure (352.85 K) | vapor or sublimation pressure (363.05 K) | vapor or sublimation pressure (372.85 K) |
| --- | --- | --- | --- | --- | --- | --- | --- | --- | --- | --- | --- | --- | --- | --- | --- | --- | --- | --- |
| OCC(F)(F)F [2,2,2-trifluoroethanol] | 3.96 ± 0.22 kPa | 7.25 ± 0.22 kPa | 12.82 ± 0.23 kPa | 21.83 ± 0.26 kPa | 36.1 ± 0.3 kPa | 57.08 ± 0.38 kPa | 87.31 ± 0.46 kPa | 100.8 ± 0.52 kPa |  |  |  |  |  |  |  |  |  |  |
| O [water] |  |  |  |  |  |  |  |  | 1.64 ± 0.21 kPa | 2.81 ± 0.22 kPa | 4.74 ± 0.22 kPa | 7.51 ± 0.23 kPa | 12.26 ± 0.26 kPa | 19.69 ± 0.32 kPa | 30.94 ± 0.42 kPa | 46.73 ± 0.57 kPa | 69.75 ± 0.8 kPa | 100.32 ± 1.1 kPa |
